Data as given in patent US12583855B2, “RET selective inhibitor, preparation method therefor and use thereof” (SHOUYAO HOLDINGS (BEIJING) CO., LTD., priority 2019, dated 2026).
Numbering of substitutions follows the chain as printed.

Columns and labels:
Assay type in all cases: biochemical
VEGFR2 = VEGFR2 (Homo sapiens, UniProt P35968); assay: In vitro enzymatic activity assay on VEGFR2 (HTRF); details: GST-VEGFR2 0.1 nM, ATP 2.5 μM
Description: 3. n Vitro Enzymatic Activity Assay for Compounds on VEGFR2
The compounds were diluted 5-fold with 100% DMSO starting from 1 mM (7 concentrations in total), and 2 μL of each concentration was added to 48 μL of reaction buffer (50 mM HEPES pH 7.5, 0.1 mM Na3VO4, 5 mM MgCl2, 1 mM MnCl2, 1 mM DTT, 0.001% Tween 20, and 100 μg/ml BSA) for dilution and mixing. 2.5 μL of compounds and 5 μL of GST-VEGFR2 (final concentration of 0.1 nM) were added to a 384-well plate (OptiPlate-384, purchased from PerkinElmer), the mixture was mixed by centrifugation, and 2.5 μL of ATP (final concentration of 2.5 μM) and TK Peptide Substrate mixture (final concentration of 1 μM, purchased from Cisbio) were added to start the reaction, with a total reaction volume of 10 μL. The 384-well plate was placed in an incubator and reacted at 23° C. for 1.5 h before the reaction was stopped by the addition of 5 μL of TK Antibody (purchased from Cisbio) and 5 μL of Streptavidin-XL665 (purchased from Cisbio). After further incubation in the incubator for 1 h. fluorescence values (excitation at 320 nm, detecting emitted light at 665 nm and 620 nm, and a ratio of the two as an enzyme activity signal) were read on Envision (purchased from PerkinElmer). The enzymatic activity signal of VEGFR2 was measured at 7 concentrations for each compound and the data were calculated using GraphPad Prism software to obtain the IC50 value for the compound.

RET^V804M = biological target: T1, RET^V804M (Homo sapiens, UniProt P07949, V804M); assay: In vitro enzymatic activity assay on RET^V804M (HTRF); details: GST-RET^V804M (658-1114 aa) 0.02 nM, ATP 1.5 μM
T1 construct: GST-RET^V804M (658-1114 aa, final concentration of 0.02 nM)
T1 sequence (P07949 658-1114 V804M): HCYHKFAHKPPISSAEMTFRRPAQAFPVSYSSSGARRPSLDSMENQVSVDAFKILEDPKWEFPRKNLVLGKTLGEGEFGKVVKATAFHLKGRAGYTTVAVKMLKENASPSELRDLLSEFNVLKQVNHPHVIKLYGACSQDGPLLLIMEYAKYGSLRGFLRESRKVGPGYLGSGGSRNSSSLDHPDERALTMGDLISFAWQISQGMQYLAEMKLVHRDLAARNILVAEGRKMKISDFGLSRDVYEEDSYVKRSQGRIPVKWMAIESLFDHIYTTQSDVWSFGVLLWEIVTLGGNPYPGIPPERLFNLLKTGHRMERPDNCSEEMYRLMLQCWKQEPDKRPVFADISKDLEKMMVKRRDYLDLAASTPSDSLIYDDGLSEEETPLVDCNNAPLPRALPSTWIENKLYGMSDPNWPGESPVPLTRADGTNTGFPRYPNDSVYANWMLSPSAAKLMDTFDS

RET^WT = biological target: T2, RET^WT (Homo sapiens, UniProt P07949); assay: In vitro enzymatic activity assay on RET^WT (HTRF); details: GST-RET^WT (658-1114 aa) 0.5 nM, ATP 25 μM
T2 construct: GST-RET^WT (658-1114 aa, final concentration of 0.5 nM)
T2 sequence (P07949 658-1114): T1 sequence (P07949 658-1114 V804M) with M147V
Description: 1. In Vitro Enzymatic Activity Assay for Compounds on RET^WT
The compounds were diluted 5-fold with 100% DMSO starting from 0.2 mM (7 concentrations in total), and 2 μL of each concentration was added to 48 μL of reaction buffer (50 mM HEPES pH7.5, 0.1 mM Na3VO4, 5 mM MgCl2. 1 mM DTT, 0.001% Tween 20, and 100 μg/ml BSA) for dilution and mixing.
The 384-well plate was placed in an incubator and reacted at 23° C. for 2 h before the reaction was stopped by the addition of 5 μL of TK Antibody (purchased from Cisbio) and 5 μL of Streptavidin-XL665 (purchased from Cisbio). […] The enzymatic activity signal of RET^WT was measured at 7 concentrations for each compound and the data were calculated using GraphPad Prism software to obtain the IC50 value for the compound.

Sequence of VEGFR2 (P35968 20-1356): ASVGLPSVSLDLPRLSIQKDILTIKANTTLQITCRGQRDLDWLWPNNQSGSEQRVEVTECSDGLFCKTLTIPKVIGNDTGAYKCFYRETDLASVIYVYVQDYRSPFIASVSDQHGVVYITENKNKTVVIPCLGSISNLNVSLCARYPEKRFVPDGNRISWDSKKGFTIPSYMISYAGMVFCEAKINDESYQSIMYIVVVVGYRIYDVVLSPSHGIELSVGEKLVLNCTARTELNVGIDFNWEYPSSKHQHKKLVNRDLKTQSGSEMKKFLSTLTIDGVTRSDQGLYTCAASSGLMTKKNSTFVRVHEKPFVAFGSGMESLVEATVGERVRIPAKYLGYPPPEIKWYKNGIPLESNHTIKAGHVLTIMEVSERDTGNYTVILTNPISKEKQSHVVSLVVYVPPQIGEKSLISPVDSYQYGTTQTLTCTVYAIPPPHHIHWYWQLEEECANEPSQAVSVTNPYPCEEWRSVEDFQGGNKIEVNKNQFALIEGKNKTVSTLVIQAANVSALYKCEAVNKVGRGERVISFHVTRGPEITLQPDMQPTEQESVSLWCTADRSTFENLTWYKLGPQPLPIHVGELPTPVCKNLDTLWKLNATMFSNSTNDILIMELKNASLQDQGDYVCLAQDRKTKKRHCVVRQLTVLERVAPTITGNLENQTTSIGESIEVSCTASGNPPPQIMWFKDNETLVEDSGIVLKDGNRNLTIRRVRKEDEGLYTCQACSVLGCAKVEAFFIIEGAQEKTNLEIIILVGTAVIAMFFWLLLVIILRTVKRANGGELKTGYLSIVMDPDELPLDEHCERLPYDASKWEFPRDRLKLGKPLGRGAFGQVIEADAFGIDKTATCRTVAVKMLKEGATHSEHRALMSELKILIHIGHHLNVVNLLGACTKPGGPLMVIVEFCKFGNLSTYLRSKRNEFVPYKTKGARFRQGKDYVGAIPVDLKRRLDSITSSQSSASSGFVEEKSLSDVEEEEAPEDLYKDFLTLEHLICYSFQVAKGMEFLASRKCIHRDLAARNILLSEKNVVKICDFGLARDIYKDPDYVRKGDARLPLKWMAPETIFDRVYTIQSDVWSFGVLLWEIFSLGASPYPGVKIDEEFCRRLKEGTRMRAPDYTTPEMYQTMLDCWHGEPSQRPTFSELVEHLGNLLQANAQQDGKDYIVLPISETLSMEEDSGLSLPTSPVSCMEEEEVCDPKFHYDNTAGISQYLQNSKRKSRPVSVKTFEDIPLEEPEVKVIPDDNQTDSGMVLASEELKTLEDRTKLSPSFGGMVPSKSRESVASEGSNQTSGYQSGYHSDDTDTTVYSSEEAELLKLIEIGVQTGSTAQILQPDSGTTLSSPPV

Structure (SMILES)	IC50 (VEGFR2) [nM]	IC50 (RET^V804M) [nM]	IC50 (RET^WT) [nM]
C=CC(=O)N1CCN(c2ccc(-c3cc(-c4cnn(C)c4)cn4ncc(C#N)c34)cn2)CC1 [Example 1, 4-(6-(4-acryloylpiperazin-1-yl)pyridin-3-yl)-6-(1-methyl-1Hpyrazol-4-yl)pyrazolo[1,5-a]pyridine-3-carbonitrile]	4.49	1.21	0.352
COc1ccc(CN2C3CC2CN(c2ccc(-c4cc(N5CC(C#N)C5)cn5ncc(C#N)c45)cn2)C3)cn1 [Example 13, 6-(3-cyanoazetidin-1-yl)-4-(6-(6-((6-methoxypyridin-3-yl)methyl)-3,6-diazabicyclo[3.1.1]heptan-3-yl)pyridin-3-yl)pyrazolo[1,5-a]pyridine-3-carbonitrile]	3.44	0.332	0.421
COc1ccc(CN2C3CC2CN(c2ccc(-c4cc(N5CC(O)(C(F)(F)F)C5)cn5ncc(C#N)c45)cn2)C3)cn1 [Example 28, 6-(3-hydroxy-3-(trifluoromethyl)azetidin-1-yl)-4-(6-(6-((6-methoxypyridin-3-yl)methyl)-3,6-diazabicyclo[3.1.1]heptan-3-yl)pyridin-3-yl)pyrazolo[1,5-a]pyridine-3-carbonitrile]	–	2.5	0.757
COc1ccc(CN2C3CC2CN(c2ccc(-c4cc(N5CC6(CCOCC6)C5)cn5ncc(C#N)c45)cn2)C3)cn1 [Example 30, 4-(6-(6-((6-methoxypyridin-3-yl)methyl)-3,6-diazabicyclo[3.1.1]heptan-3-yl)pyridin-3-yl)-6-(7-oxa-2-azaspiro[3.5]nonan-2-yl) pyrazolo[1,5-a]pyridine-3-carbonitrile]	–	1.11	0.68
COc1ccc(CN2CCN(c3ccc(-c4cc(N5CC(OC)C5)cn5ncc(C#N)c45)cn3)CC2)cn1 [Example 33, 6-(3-methoxyazetidin-1-yl)-4-(6-(4-((6-methoxypyridin-3-yl)methyl)piperazin-1-yl)pyridin-3-yl)pyrazolo[1,5-a]pyridine-3-carbonitrile]	7.5	2.84	0.944
COC/C=C/C(=O)N1C2CC1CN(c1ccc(-c3cc(-c4cnn(C)c4)cn4ncc(C#N)c34)cn1)C2 [Example 61, (E)-4-(6-(6-(4-methoxybut-2-enoyl)-3,6-diazabicyclo[3.1.1]heptan-3-yl)pyridin-3-yl)-6-(1-methyl-1Hpyrazol-4-yl)pyrazolo[1,5-a]pyridine-3-carbonitrile]	18.2	6.37	0.779
CS(=O)(=O)c1ccccc1CN1C2CC1CN(c1ccc(-c3cc(N4CC(F)(F)C4)cn4ncc(C#N)c34)cn1)C2 [Example 67, 6-(3,3-difluoroazetidin-1-yl)-4-(6-(6-(2-(methylsulfonyl)benzyl)-3,6-diazabicyclo [3.1.1]heptan-3-yl)pyridin-3-yl)pyrazolo[1,5-a]pyridine-3-carbonitrile]	80.5	3.97	0.465
CS(=O)(=O)c1ccc(CN2C3CCC2CN(c2ccc(-c4cc(-c5cnn(C(F)F)c5)cn5ncc(C#N)c45)cn2)C3)cc1 [Example 69, 6-(1-difluoromethyl-1Hpyrazol-4-yl)-4-(6-(8-(4-(methylsulfonyl)benzyl)-3,8-diazabicyclo[3.2.1]octan-3-yl)pyridin-3-yl)pyrazolo[1,5-a]pyridine-3-carbonitrile]	63.1	5.47	0.716
CS(=O)(=O)c1ccc(CN2C3CC2CN(c2cnc(-c4cc(-c5cnn(C(F)F)c5)cn5ncc(C#N)c45)cn2)C3)cc1 [Example 70, 4-(5-(6-(4-(methylsulfonyl)benzyl)-3,6-diazabicyclo[3.1.1]heptan-3-yl)pyrazin-2-yl)-6-(1-(difluoromethyl)-1Hpyrazol-4-yl) pyrazolo[1,5-a] pyridine-3-carbonitrile]	55.7	2.52	0.324
CSc1ccc(CN2C3CC2CN(c2ccc(-c4cc(-c5cnn(C(F)F)c5)cn5ncc(C#N)c45)cn2)C3)cc1 [Example 82, 6-(1-difluoromethyl-1Hpyrazol-4-yl)-4-(6-(6-(4-(methylthio)benzyl)-3,6-diazabicyclo[3.1.1]heptan-3-yl)pyridin-3-yl)pyrazolo[1,5-a]pyridine-3-carbonitrile]	0.734	–	0.136

Second part, the compound after the results:

IC50 (VEGFR2) [nM]	IC50 (RET^V804M) [nM]	IC50 (RET^WT) [nM]	Structure (SMILES)
1.55	0.629	0.762	COc1ccc(CN2C3CC2CN(c2ccc(-c4cc(N5CC6(COC6)C5)cn5ncc(C#N)c45)cn2)C3)cn1 [Example 14, 4-(6-(6-((6-methoxypyridin-3-yl)methyl)-3,6-diazabicyclo[3.1.1]heptan-3-yl)pyridin-3-yl)-(2-oxa-azaspiro[3.3]hepta-6-yl)pyrazolo[1,5-a]pyridine-3-carbonitrile]
9.6	1.47	0.172	CS(=O)(=O)c1ccc(CN2C3CC2CN(c2ccc(-c4cc(N5CC(C#N)C5)cn5ncc(C#N)c45)cn2)C3)cc1 [Example 35, 6-(3-cyanoazetidin-1-yl)-4-(6-(6-(4-(methylsulfonyl)benzyl)-3,6-diazabicyclo[3.1.1]heptan-3-yl)pyridin-3-yl)pyrazolo[1,5-a]pyridine-3-carbonitrile]
16.9	2.58	0.179	CS(=O)(=O)c1ccc(CN2C3CC2CN(c2ccc(-c4cc(N5CC(F)(F)C5)cn5ncc(C#N)c45)cn2)C3)cc1 [Example 36, 6-(3,3-difluoroazetidin-1-yl)-4-(6-(6-(4-(methylsulfonyl)benzyl)-3,6-diazabicyclo [3.1.1]heptan-3-yl)pyridin-3-yl)pyrazolo[1,5-a]pyridine-3-carbonitrile]
2.94	–	0.268	CSc1ccc(CN2C3CC2CN(c2ccc(-c4cc(-c5cnn(C(F)F)c5)cn5ncc(C#N)c45)cn2)C3)nc1 [Example 66, 6-(1-(difluoromethyl)-1Hpyrazol-4-yl)-4-(6-(6-((5-(methylthio)pyridin-2-yl)methyl)-3,6-diazabicyclo[3.1.1]heptan-3-yl)pyridin-3-yl)pyrazolo[1,5-a]pyridine-3-carbonitrile]
4.59	–	0.12	N#Cc1cnn2cc(-c3cnn(C(F)F)c3)cc(-c3ccc(N4CC5CC(C4)N5Cc4ccc([N+](=O)[O-])cc4)nc3)c12 [Example 83, 4-(6-(6-(4-nitrobenzyl)-3,6-diazabicyclo[3.1.1]heptan-3-yl)pyridin-3-yl)-6-(1-(difluoromethyl)-1Hpyrazol-4-yl)pyrazolo[1,5-a]pyridine-3-carbonitrile]
